In one assay the test system is Rat whole blood (RWB). Put plainly: LTB4 secretion assay in RWB (rat whole blood). The assay is classed as cell-based. The settings on record: Rattus norvegicus. As for the experimental part:
Rat blood was drawn from caudal vena cava from male Sprague Dawley rat (6-9 weeks old) in vacuette coated with sodium heparin (Greiner bio-one, Cat #455051). The blood was pooled and diluted with RPMI (WelGENE, Cat #LM 011-05) to 1:1. The diluted blood was aliquoted into 96 well plate (200 ul per well) and compounds were added in dose response to a desired concentration ranging from 2.5 nM to 50 uM. After 15 min of pre-incubation at 37° C., calcium ionophore (A23187) was added to the final concentration of 10 uM. After 10 min of further incubation at 37° C., the LTB4 production was stopped by diluting the reaction mixture with ice cold PBS (1:4 dilutions). Cells were removed by centrifugation at 1000×g, 4° C. for 10 min, and the supernatant was transferred and then the quantification of LTB4 was done with Leukotriene B4 EIA kit (Cayman, Cat #520111) as instructed.

A further assay addresses T1, human 5-LOX (Homo sapiens, UniProt P09917).
T1 construct: purchased Cayman 60402; host or cells: insect cells (lysate)
T1 sequence (P09917 1-674): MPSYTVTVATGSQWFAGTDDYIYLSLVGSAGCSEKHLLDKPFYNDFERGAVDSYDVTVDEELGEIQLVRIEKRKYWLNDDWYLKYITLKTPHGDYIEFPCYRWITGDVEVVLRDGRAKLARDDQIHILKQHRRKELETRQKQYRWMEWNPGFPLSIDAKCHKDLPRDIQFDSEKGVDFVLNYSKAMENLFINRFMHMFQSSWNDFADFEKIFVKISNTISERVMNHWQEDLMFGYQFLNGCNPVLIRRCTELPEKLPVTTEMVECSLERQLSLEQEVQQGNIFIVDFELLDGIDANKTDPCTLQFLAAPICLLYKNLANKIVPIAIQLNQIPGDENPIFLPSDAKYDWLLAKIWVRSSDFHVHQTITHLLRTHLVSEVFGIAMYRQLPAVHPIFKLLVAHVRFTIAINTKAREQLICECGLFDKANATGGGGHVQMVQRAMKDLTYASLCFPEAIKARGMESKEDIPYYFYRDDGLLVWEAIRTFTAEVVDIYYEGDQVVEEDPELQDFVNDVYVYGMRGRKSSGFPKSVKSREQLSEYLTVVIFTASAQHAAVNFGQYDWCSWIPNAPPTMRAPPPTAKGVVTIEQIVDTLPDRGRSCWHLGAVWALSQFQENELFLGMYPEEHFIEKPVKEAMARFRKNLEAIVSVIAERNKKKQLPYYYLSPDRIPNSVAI
Put plainly: 5-LOX enzyme activity, fluorescence method (5-HPETE, H2DCFDA). The format is biochemical. The note with it: read-out: 5-LO (IC50). Put shortly: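 Fluorescence-based read-out, run entirely at room temperature. Enzyme mixture was exposed to a dose range of compound from 0.5 nM to 10 uM for 5 min before ATP and arachidonic acid were added to final levels of 100 uM and 3 uM.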

The test system of assay [1] is Rat basophilic leukemia (RBL) cells. In words: LTB4 secretion assay in RBL (rat basophilic leukemia cells). The format is cell-based. The note with it: Rattus norvegicus, RBL. Put shortly: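 LTB4 released into supernatant was measured by EIA after 10 min at 37 °C with arachidonic acid (2.5 uM final) and calcium ionophore A23187 (5 uM final). Before stimulation, cells plated 2×10^4/well overnight received compound doses (5 nM to 100 uM) for 15 min in 0.5% FBS medium.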

Where only a bound is given, the exact number is not on record here.

With `Cn1c(NCc2ccc(Oc3ncc(F)cn3)cc2)nc2ccc(N)cc21` [Compound 336], the values for the EC50 (with Rat whole blood (RWB); in assay [1]) were below 10 µM and 10 to 20 µM, respectively. Besides, on human 5-LOX, the concentration for half-maximal inhibition (IC50) is below 1 µM.
In the case of `Cn1nc(Nc2ccc3nc(NCc4ccc(Oc5ncc(Cl)cn5)cc4)n(C)c3c2)cc1CF` [Compound 538], the EC50 (in the assay with Rat whole blood (RWB); in assay [1]) was below 10 µM in each case. Further, the IC50 at human 5-LOX is below 1 µM.
`c1ccc(Oc2ccc(CNc3nc4cc(NC5COC5)ccc4[nH]3)cc2)cc1` [Compound 87]: the concentration giving a half-maximal response (EC50) (in the assay on Rat whole blood (RWB); in assay [1]) was below 10 µM throughout. In addition, the concentration for half-maximal inhibition (IC50) on human 5-LOX was below 1 µM.
For the compound `Cn1c(NCc2ccc(Oc3ncc(C(F)(F)F)cn3)cc2)nc2ccc(N)cc21` [Compound 373], the EC50 (in the assay on Rat whole blood (RWB); in assay [1]) was below 10 µM each time. Besides, at human 5-LOX, the half-inhibitory concentration (IC50) was below 1 µM.
For `CC(C)n1c(NCc2ccc(Oc3ccc(Cl)cn3)cc2)nc2ccc(NC3COC3)cc21` [Compound 271], the 50% effective concentration (EC50) (in the assay with Rat whole blood (RWB); in assay [1]) was below 10 µM in each case. Besides, on human 5-LOX, the IC50 was below 1 µM.
Regarding `Cc1cc(Nc2ccc3nc(NCc4ccc(Oc5ncc(Cl)cn5)cc4)n(C)c3c2)nn1C` [Compound 465], the concentration for a half-maximal effect (EC50) (with Rat whole blood (RWB); in assay [1]) was below 10 µM each time. Further, the half-maximal inhibitory concentration (IC50) on human 5-LOX is below 1 µM.
In the case of `Nc1ccc2nc(N)n(Cc3ccc(Oc4ccc(OC(F)(F)F)cc4)cc3)c2c1` [Compound 245], the EC50 in the assay on Rat whole blood (RWB) was 10 to 20 µM; in assay [1], below 10 µM. In addition, the IC50 at human 5-LOX was above 10 µM.
On the same counts, the results for `CCC(Nc1ccc2[nH]c(N(C)C)nc2c1)c1ccc(Oc2ccc(Cl)cc2)cc1` (centres unmarked) [Compound 128] are above 20 µM, below 10 µM and below 1 µM.
On the same counts, the results for `Cn1c(NCc2ccc(Oc3ccc(Cl)cn3)c(F)c2)nc2ccc(NC3COC3)cc21` [Compound 268] are below 10 µM, below 10 µM and below 1 µM.
On the same counts, the results for `CCC(Nc1nc2ccc(Nc3cc(C(F)(F)F)n(C)n3)cc2n1C)c1ccc(Oc2cnc(Cl)cn2)cc1` (centres unmarked) [Compound 517] are below 10 µM, below 10 µM and 1 to 10 µM.
In turn, `Nc1ccc2[nH]c(NCCc3ccc(Oc4ccc(Cl)cc4)cc3)nc2c1` [Compound 11] returned a concentration giving a half-maximal response (EC50) in the assay with Rat whole blood (RWB) below 10 µM. Also, the IC50 at human 5-LOX was below 1 µM.
On the same counts, the results for `CCOC(=O)c1c[nH]nc1Nc1ccc2nc(N)n(CCOc3ccc(OC(F)(F)F)cc3)c2c1` [Compound 22] are above 20 µM and above 10 µM.
On the same counts, the results for `Fc1ccc(Nc2ccc3[nH]c(NCc4ccc(Oc5ccc(Cl)cc5)cc4)nc3c2)cn1` [Compound 23] are 10 to 20 µM and 1 to 10 µM.
On the same counts, the results for `Nc1ccc2[nH]c(NCc3ccc(Oc4ccc(Cl)cc4)cc3F)nc2c1` [Compound 10] are 10 to 20 µM and below 1 µM.
Regarding `CCOC(=O)c1c[nH]nc1Nc1ccc2[nH]c(NCc3ccc(Oc4ccc(Cl)cc4)cc3)nc2c1` [Compound 13], the EC50 in the assay with Rat whole blood (RWB) was above 20 µM. In addition, the IC50 on human 5-LOX lay in the range of 1 to 10 µM.
On the same counts, the results for `Nc1ccc2[nH]c(NCc3ccc(Oc4ccc(Cl)cc4)cc3Cl)nc2c1` [Compound 9] are 10 to 20 µM and below 1 µM.
On the same counts, the results for `O=C(NC1CC1)c1c[nH]nc1Nc1ccc2[nH]c(NCc3ccc(Oc4ccc(Cl)cc4)cc3)nc2c1` [Compound 12] are below 10 µM and below 1 µM.
On the same counts, the results for `Nc1ccc2[nH]c(NCc3ccc4oc(-c5ccc(OC(F)(F)F)cc5)nc4c3)nc2c1` [Compound 1] are above 20 µM and below 1 µM.
`Nc1ccc2[nH]c(NCc3ccc(N4CCC(OCc5ccc(Cl)cc5)CC4)cc3)nc2c1` [Compound 6] had an EC50 with Rat whole blood (RWB) above 20 µM. In addition, the half-maximal inhibitory concentration (IC50) on human 5-LOX is below 1 µM.
On the same counts, the results for `Cc1cc(Nc2ccc3[nH]c(NCc4ccc(Oc5ccc(Cl)cc5)cc4)nc3c2)n[nH]1` [Compound 8] are above 20 µM and below 1 µM.
On the same counts, the results for `CC(C)(Nc1nc2cc(N)ccc2[nH]1)c1ccc(Oc2ccc(Cl)cc2)cc1` [Compound 20] are above 20 µM and below 1 µM.
On the same counts, the results for `Nc1ccc2[nH]c(NCc3ccc(N4CCC(COc5ccc(Cl)cc5)CC4)cc3)nc2c1` [Compound 5] are 10 to 20 µM and below 1 µM.
`Nc1ccc2[nH]c(NCc3ccc(N4CCC(Oc5ccc(Cl)cc5)C4)cc3)nc2c1` (centres unmarked) [Compound 3] yielded a half-maximal effective concentration (EC50) in the assay with Rat whole blood (RWB) above 20 µM. Besides, the IC50 at human 5-LOX was below 1 µM.
In the assay with Rat whole blood (RWB), `Nc1ccc2[nH]c(NCc3ccc(OCc4ccc(Cl)cc4)cc3)nc2c1` [Compound 4] gave an EC50 above 20 µM. In addition, at human 5-LOX, the concentration for half-maximal inhibition (IC50) was below 1 µM.
On the same counts, the results for `Clc1ccc(Oc2ccc(CNc3nc4cc(Nc5cccnc5)ccc4[nH]3)cc2)cc1` [Compound 16] are above 20 µM and below 1 µM.
On the same counts, the results for `Nc1ccc2[nH]c(NCc3ccc(N4CCOCC4)cc3)nc2c1` [Compound 7] are above 20 µM and below 1 µM.
`Cn1c(NCc2ccc(Oc3ccc(Cl)cn3)cc2)nc2ccc(NC3CNC3)cc21` [Compound 401]: the IC50 at human 5-LOX was below 1 µM. Moreover, the half-maximal effective concentration (EC50) in assay [1] was below 10 µM.
In the case of `CCOC(=O)CN(c1ccc(F)cc1)c1ccc(CNc2ccc3nc(N(C)C)[nH]c3c2)cc1` [Compound 185], the IC50 at human 5-LOX was below 1 µM. This compound also yielded an EC50 in assay [1] below 10 µM.
On to `Cc1cc(Oc2ccc(Cl)cn2)ccc1CNc1nc2ccc(N)cc2n1C` [Compound 290], for which the half-maximal inhibitory concentration (IC50) on human 5-LOX is below 1 µM. Also, the concentration for a half-maximal effect (EC50) in assay [1] is below 10 µM.
On the same counts, the results for `Cn1c(NCc2ccc(Oc3ccc4ccc(Cl)cc4n3)cc2)nc2ccc(NC3COC3)cc21` [Compound 420] are below 1 µM and below 10 µM.
On the same counts, the results for `COC(c1ccc(CNc2nc3ccc(NC4COC4)cc3[nH]2)cc1)c1ccccn1` (centres unmarked) [Compound 189] are below 1 µM and above 20 µM.
On the same counts, the results for `Nc1ccc2nc(N3CCC(O)C3)n(Cc3ccc(Oc4ccc(Cl)cc4)cc3)c2c1` (centres unmarked) [Compound 206] are below 1 µM and below 10 µM.
`Cn1c(NCc2ccc(Oc3cn4ccc(Cl)cc4n3)cc2)nc2ccc(N)cc21` [Compound 442]: the IC50 on human 5-LOX is below 1 µM. Moreover, in assay [1], the EC50 was below 10 µM.
Consider `Cn1c(NCc2ccc(Oc3ccc(Cl)cc3)cc2)nc2ccc(NCC(N)=O)cc21` [Compound 170], for which, on human 5-LOX, the IC50 is below 1 µM. In assay [1], this compound returned an EC50 of 10 to 20 µM.
With `Cn1c(NCc2ccc(Oc3ccc4cc(Cl)ccc4n3)cc2)nc2ccc(N)cc21` [Compound 389], the half-maximal inhibitory concentration (IC50) at human 5-LOX was below 1 µM. Also, the EC50 in assay [1] is below 10 µM.
In the assay on Rat whole blood (RWB), `Nc1ccc2nc(N)n(CCc3ccc(Oc4ccc(Cl)cc4)cc3)c2c1` [Compound 15] yielded a half-maximal effective concentration (EC50) above 20 µM. In addition, the concentration for half-maximal inhibition (IC50) at human 5-LOX is below 1 µM.
With `Cn1c(NCc2ccc(Oc3ccc(Cl)cc3)cc2)nc2ccc(N3CCC3)cc21` [Compound 182], the IC50 on human 5-LOX is below 1 µM. The compound further came in with an EC50 in assay [1] of 10 to 20 µM.
Turning to `Cn1c(NCc2ccc3c(ccn3-c3ccc(Cl)cn3)c2)nc2ccc(NC3COC3)cc21` [Compound 457], the IC50 on human 5-LOX was below 1 µM. In assay [1], the EC50 was below 10 µM.
On the same counts, the results for `CCn1c(NCc2ccc(Oc3ncc(C(F)(F)F)cn3)cc2)nc2ccc(NC3COC3)cc21` [Compound 548] are below 1 µM and below 10 µM.
As to `Cn1c(NCc2ccc(Oc3cnc(Cl)cn3)cc2)nc2ccc(N)cc21` [Compound 295], on human 5-LOX, the IC50 was below 1 µM. In assay [1], this compound displayed an EC50 below 10 µM.
For the compound `Cn1c(NCc2ccc(Oc3ncc(Cl)c4ccccc34)cc2)nc2ccc(N)cc21` [Compound 399], the IC50 at human 5-LOX is below 1 µM. The same compound yielded an EC50 in assay [1] below 10 µM.
On the same counts, the results for `Cn1c(NCc2ccc(-n3ccc4cc(Cl)cnc43)cc2)nc2ccc(N)cc21` [Compound 445] are below 1 µM and below 10 µM.
Consider `CN(C(=O)c1ccc(CNc2nc3ccc(NC4COC4)cc3n2C)cc1)c1ccc(Cl)cn1` [Compound 320], for which the IC50 at human 5-LOX is below 1 µM. The compound further yielded an EC50 in assay [1] above 20 µM.
Regarding `Clc1ccc(Oc2ccc(CNc3nc4ccc(NC5COC5)cc4n3C3COC3)cc2)nc1` [Compound 266], the IC50 on human 5-LOX was below 1 µM. Besides, the concentration for a half-maximal effect (EC50) in assay [1] is 10 to 20 µM.

For the origin of these results see patent US11447486B2, “2-amino-benzimidazole derivatives and their use as 5-lipoxygenase and/or prostaglandin E synthase inhibitors” (INSTITUT PASTEUR KOREA, priority 2014, dated 2022).
